Data: ChEMBL document CHEMBL4364299, “Discovery of a Potent Kelch-Like ECH-Associated Protein 1-Nuclear Factor Erythroid 2-Related Factor 2 (Keap1-Nrf2) Protein-Protein Interaction Inhibitor with Natural Proline Structure as a Cytoprotective Agent against Acetaminophen-Induced Hepatotoxicity” (J Med Chem, 2019)
Activity calls are given as the source filed them. The calls are words filed in the database; no cut-off is given here.

How the values were obtained:
[1] = biological target: T1, Nuclear factor erythroid 2-related factor 2 (Homo sapiens) (UniProt Q16236); experiment: Activation of Nrf2 in human L02 cells harboring control siRNA assessed as increase in GCLM expression at 10 uM measured after 10 hrs by Western blot analysis; format: cell-based
T1 sequence (whole entry): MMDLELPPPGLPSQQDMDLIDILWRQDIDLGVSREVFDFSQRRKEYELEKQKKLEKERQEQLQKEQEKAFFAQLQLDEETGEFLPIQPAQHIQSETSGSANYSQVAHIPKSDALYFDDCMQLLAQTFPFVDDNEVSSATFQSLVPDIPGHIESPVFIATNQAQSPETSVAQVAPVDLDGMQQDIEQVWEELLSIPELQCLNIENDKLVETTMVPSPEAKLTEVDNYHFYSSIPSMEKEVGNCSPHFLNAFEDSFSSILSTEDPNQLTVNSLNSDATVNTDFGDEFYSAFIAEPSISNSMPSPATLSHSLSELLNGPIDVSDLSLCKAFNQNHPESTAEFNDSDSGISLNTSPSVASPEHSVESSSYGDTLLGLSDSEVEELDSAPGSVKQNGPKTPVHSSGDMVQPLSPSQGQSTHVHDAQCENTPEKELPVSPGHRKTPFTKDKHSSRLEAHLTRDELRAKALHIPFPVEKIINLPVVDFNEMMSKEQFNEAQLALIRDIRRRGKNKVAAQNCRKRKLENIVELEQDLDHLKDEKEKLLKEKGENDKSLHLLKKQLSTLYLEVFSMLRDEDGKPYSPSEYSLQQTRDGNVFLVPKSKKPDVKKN

[2] = biological target: T1, Nuclear factor erythroid 2-related factor 2 (Homo sapiens); experiment: Activation of Nrf2 in human L02 cells assessed as increase in HO-1 expression at 10 uM measured after 4 to 72 hrs hrs by Western blot analysis; format: cell-based
Mus musculus [3] = experiment: Protection against APAP-induced hepatotoxicity in C57BL/6 mouse assessed as decrease in ALP level at 10 mg/kg, ip treated 2 hrs prior to 22 hrs starvation followed by APAP challenge and measured after 6 hrs; format: functional, organism-based
L02 [4] = experiment: Upregulation of GCLM expression in human L02 cells harboring Nrf2 siRNA at 10 uM measured after 10 hrs by Western blot analysis; format: functional, cell-based
Mus musculus [5] = experiment: Protection against APAP-induced hepatotoxicity in C57BL/6 mouse assessed as decrease in alpha-SMA expression in liver at 10 to 40 mg/kg, ip treated 2 hrs prior to 22 hrs starvation followed by APAP challenge and measured after 6 hrs by Dako/Mayer's hematoxylin staining-based immunohistochemical analysis; format: functional, organism-based
Mus musculus [6] = experiment: Protection against APAP-induced hepatotoxicity in C57BL/6 mouse assessed as destruction of liver structure at 10 to 40 mg/kg, ip treated 2 hrs prior to 22 hrs starvation followed by APAP challenge and measured after 6 hrs by H and E staining-based light microscopic analysis; format: functional, organism-based
[7] = biological target: T1, Nuclear factor erythroid 2-related factor 2 (Homo sapiens); experiment: Activation of Nrf2 in human L02 cells harboring control siRNA assessed as increase in NEFL2L expression at 10 uM measured after 10 hrs by Western blot analysis; format: cell-based
Mus musculus [8] = experiment: Protection against APAP-induced hepatotoxicity in C57BL/6 mouse assessed as decrease in total bilirubin level at 10 mg/kg, ip treated 2 hrs prior to 22 hrs starvation followed by APAP challenge and measured after 6 hrs; format: functional, organism-based
Mus musculus [9] = experiment: Protection against APAP-induced hepatotoxicity in C57BL/6 mouse assessed as decrease in HO-1 expression in liver at 10 to 40 mg/kg, ip treated 2 hrs prior to 22 hrs starvation followed by APAP challenge and measured after 6 hrs by Dako/Mayer's hematoxylin staining-based immunohistochemical analysis; format: functional, organism-based
L02 [10] = settings: Homo sapiens, 5 to 10 uM
Description: Cytoprotective activity against APAP-induced hepatotoxicity in human L02 cells assessed as inhibition of IL6 production at 5 to 10 uM preincubated for 12 hrs followed by APAP stimulation and measured after 24 hrs by ELISA

Mus musculus [11] = experiment: Protection against APAP-induced hepatotoxicity in C57BL/6 mouse assessed as decrease in liver hemorrhage at 10 to 40 mg/kg, ip treated 2 hrs prior to 22 hrs starvation followed by APAP challenge and measured after 6 hrs by H and E staining-based light microscopic analysis; format: functional, organism-based

COc1ccc(S(=O)(=O)N(CC(=O)O)c2ccc(N3CCC[C@H]3C(=O)O)c3ccccc23)cc1
Activity [1]: Active | Activity [2]: Active | Activity (Mus musculus [3]): Active | Activity (L02 [4]): inactive | Activity (Mus musculus [5]): Active | Activity (Mus musculus [6]): Active | Activity [7]: Active | Activity (Mus musculus [8]): Active | Activity (Mus musculus [9]): Active | inhibition (L02 [10]): Active | Activity (Mus musculus [11]): Active
